According to patent US10316017B2, “COT modulators and methods of use thereof” (Gilead Sciences, Inc., priority 2015, dated 2019):

What was measured:
[1] = test system: TNFα production in LPS-stimulated human monocytes; assay: Cot Monocyte TNFα Cell Based Assay; conditions: Homo sapiens, Monocyte, TNFα in LPS-stimulated human monocytes; read-out: EC50 TNF
Summary of the method: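 5,000 cells/well; cmpd 1 h, 37 °C, 0.5% DMSO final; LPS 50 pg/ml, 4 h, 37 °C; media TNFα by HTRF sandwich (cryptate/XL665), RT overnight; % control vs unstimulated/stimulated wells.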

[2] = target: T1, human Cot catalytic domain (30-397 amino acids) (Homo sapiens, UniProt P41279); assay: High Throughput Cot Biochemical Assay (KinEASE TR-FRET); conditions: Cot biochemical HTRF (KinEASE TR-FRET) assay; read-out: IC50 HTRF
T1 construct: Purified recombinant human Cot catalytic domain (30-397 amino acids) was purchased from Cama Biosciences; purchased Cama Biosciences (so in the source)
Summary of the method: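 First, purified human Cot (aa 30-397) at 5 nM phosphorylates an XL665-labeled STK3 peptide (1 μM) at 400 μM ATP, pH 7.0, 0.1% DMSO. Then a europium-conjugated phospho-specific antibody binds the product, giving the TR-FRET signal.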

T1 sequence (P41279 30-397): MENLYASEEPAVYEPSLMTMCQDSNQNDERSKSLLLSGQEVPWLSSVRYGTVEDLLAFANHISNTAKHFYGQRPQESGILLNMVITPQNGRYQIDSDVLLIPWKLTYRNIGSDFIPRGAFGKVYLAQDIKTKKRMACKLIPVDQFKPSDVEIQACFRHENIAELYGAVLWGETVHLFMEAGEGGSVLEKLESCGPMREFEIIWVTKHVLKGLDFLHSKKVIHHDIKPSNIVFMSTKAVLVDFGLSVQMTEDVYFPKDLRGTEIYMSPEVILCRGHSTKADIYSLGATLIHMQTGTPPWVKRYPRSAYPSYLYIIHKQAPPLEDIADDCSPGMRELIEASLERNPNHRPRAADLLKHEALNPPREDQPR

Structure (SMILES) | EC50 [1] [nM] | IC50 [2] [nM]
CC(C)(C)N1CCC(n2cc([C@@H](Nc3cc(Cl)c4ncc(C#N)c(Nc5cccc(Cl)c5Cl)c4c3)c3ccccc3)nn2)CC1 [Example 526, (S)-6-(((1-(1-(tert-butyl)piperidin-4-yl)-1H-1,2,3-triazol-4-yl)(phenyl)methyl)amino)-8-chloro-4-((2,3-dichlorophenyl)amino) quinoline-3-carbonitrile] | 503 | 24
CC(C)(C)N1CCC(n2cc([C@@H](Nc3cc(Cl)c4ncc(C#N)c(Nc5cc(Cl)ccc5Cl)c4c3)c3ccccc3)nn2)CC1 [Example 527, (S)-6-(((1-(1-(tert-butyl)piperidin-4-yl)-1H-1,2,3-triazol-4-yl)(phenyl)methyl)amino)-8-chloro-4-((2,5-dichlorophenyl)amino) quinoline-3-carbonitrile] | 1360 | 52
N#Cc1cnc2c(Cl)cc(N[C@@H](c3cccc(N4CCCS4(=O)=O)c3)c3c[nH]nn3)cc2c1Nc1ccc(Cl)c(Cl)c1F [Example 528, (S)-8-chloro-4-((3,4-dichloro-2-fluorophenyl)amino)-6-(((3-(1,1-dioxidoisothiazolidin-2-yl)phenyl)(1H-1,2,3-triazol-4-yl)methyl)amino)quinoline-3-carbonitrile] | 830 | 54
N#Cc1cnc2c(Cl)cc(N[C@@H](c3ccccc3)c3cn(C4[C@H]5CNC[C@@H]45)nn3)cc2c1Nc1ccc(F)c(Cl)c1 (stereo partly drawn) [Example 529, 6-(((S)-(1-((1R,5S,6s)-3-azabicyclo[3.1.0]hexan-6-yl)-1H-1,2,3-triazol-4-yl)(phenyl)methyl)amino)-8-chloro-4-((3-chloro-4-fluorophenyl)amino) quinoline-3-carbonitrile] | 71 | 2
CC[N+](C)(CC)CCn1cc([C@@H](Nc2cc(Cl)c3ncc(C#N)c(Nc4ccc(Cl)c(Cl)c4F)c3c2)c2ccccc2)nn1 [Example 530, (S)-2-(4-(((8-chloro-3-cyano-4-((3,4-dichloro-2-fluorophenyl)amino)quinolin-6-yl)amino)(phenyl)methyl)-1H-1,2,3-triazol-1-yl)-N,N-diethyl-N-methylethan-1-aminium] | > 10000 | 198
N#Cc1cnc2c(Cl)cc(N[C@@H](c3cccc(N4CCCC4=O)c3)c3c[nH]nn3)cc2c1Nc1ccc(Cl)c(Cl)c1F [Example 531, (S)-8-chloro-4-((3,4-dichloro-2-fluorophenyl)amino)-6-(((3-(2-oxopyrrolidin-1-yl)phenyl)(1H-1,2,3-triazol-4-yl)methyl)amino)quinoline-3-carbonitrile] | 491 | 16
CC[C@@H](Nc1c(C#N)cnc2c(Cl)cc(N[C@@H](c3c[nH]nn3)c3ccccc3Cl)cc12)c1ccccc1 [Example 532, 8-chloro-6-(((R)-(2-chlorophenyl)(1H-1,2,3-triazol-4-yl)methyl)amino)-4-(((R)-1-phenylpropyl)amino)quinoline-3-carbonitrile] | > 10000 | > 10000
CC[C@@H](Nc1c(C#N)cnc2c(Cl)cc(N[C@H](c3c[nH]nn3)c3ccccc3Cl)cc12)c1ccccc1 [Example 533, 8-chloro-6-(((S)-(2-chlorophenyl)(1H-1,2,3-triazol-4-yl)methyl)amino)-4-(((R)-1-phenylpropyl)amino) quinoline-3-carbonitrile] | 660 | 73
N#Cc1cnc2c(Cl)cc(N[C@@H](c3ccccc3)c3cn(C4CCCC4)nn3)cc2c1Nc1ccc(Cl)c(Cl)c1F [Example 534, (S)-8-chloro-6-(((1-cyclopentyl-1H-1,2,3-triazol-4-yl)(phenyl)methyl)amino)-4-((3,4-dichloro-2-fluorophenyl)amino) quinoline-3-carbonitrile] | 3150 | 57
N#Cc1cnc2c(Cl)cc(N[C@@H](c3ccccc3)c3cn([C@@H]4CCNC[C@H]4O)nn3)cc2c1Nc1cccc(Cl)c1 [Example 535, 8-chloro-4-((3-chlorophenyl)amino)-6-(((S)-(1-((3R,4R)-3-hydroxypiperidin-4-yl)-1H-1,2,3-triazol-4-yl)(phenyl)methyl)amino) quinoline-3-carbonitrile] | 500 | 4
CC[C@@H](Nc1c(C#N)cnc2c(Cl)cc(N[C@@H](c3ccccc3)c3cn(CCCN4CCCC4)nn3)cc12)c1ccccc1 [Example 536, 8-chloro-6-(((S)-phenyl (1-(3-(pyrrolidin-1-yl)propyl)-1H-1,2,3-triazol-4-yl)methyl)amino)-4-(((R)-1-phenylpropyl)amino)quinoline-3-carbonitrile] | 84 | 3
CC[C@@H](Nc1c(C#N)cnc2c(Cl)cc(N[C@@H](c3ccc(F)cc3)c3c[nH]nn3)cc12)c1ccccc1 [Example 537, 8-chloro-6-(((S)-(4-fluorophenyl)(1H-1,2,3-triazol-4-yl)methyl)amino)-4-(((R)-1-phenylpropyl)amino) quinoline-3-carbonitrile] | 458 | 17
CC[C@@H](Nc1c(C#N)cnc2c(Cl)cc(N[C@@H](c3ccc(F)cc3)c3cn(C4CCN(C(C)(C)C)CC4)nn3)cc12)c1ccccc1 [Example 538, 6-(((S)-(1-(1-(tert-butyl)piperidin-4-yl)-1H-1,2,3-triazol-4-yl)(4-fluorophenyl)methyl)amino)-8-chloro-4-(((R)-1-phenylpropyl)amino) quinoline-3-carbonitrile] | 58 | 3
CC(C)(C)N1CCC(n2cc([C@@H](Nc3cc(Cl)c4ncc(C#N)c(N[C@H]5CCCOC5)c4c3)c3ccccc3)nn2)CC1 [Example 539, 6-(((S)-(1-(1-(tert-butyl)piperidin-4-yl)-1H-1,2,3-triazol-4-yl)(phenyl)methyl)amino)-8-chloro-4-(((S)-tetrahydro-2H-pyran-3-yl)amino)quinoline-3-carbonitrile] | 3070 | 337
CC(C)(C)N1CCC(n2cc([C@@H](Nc3cc(Cl)c4ncc(C#N)c(N[C@@H]5CCCOC5)c4c3)c3ccccc3)nn2)CC1 [Example 540, 6-(((S)-(1-(1-(tert-butyl)piperidin-4-yl)-1H-1,2,3-triazol-4-yl)(phenyl)methyl)amino)-8-chloro-4-(((R)-tetrahydro-2H-pyran-3-yl)amino) quinoline-3-carbonitrile] | 5150 | 404
CC(C)n1cc([C@@H](Nc2cc(Cl)c3ncc(C#N)c(NC4CCN(C)CC4)c3c2)c2ccccc2)nn1 [Example 541, (S)-8-chloro-6-(((1-isopropyl-1H-1,2,3-triazol-4-yl)(phenyl)methyl)amino)-4-((1-methylpiperidin-4-yl)amino)quinoline-3-carbonitrile] | > 10000 | 7310
CC(C)n1cc([C@@H](Nc2cc(Cl)c3ncc(C#N)c(NCCCN(C)C)c3c2)c2ccccc2)nn1 [Example 542, (S)-8-chloro-4-((3-(dimethylamino)propyl)amino)-6-(((1-isopropyl-1H-1,2,3-triazol-4-yl)(phenyl)methyl)amino) quinoline-3-carbonitrile] | > 10000 | > 10000
CC(C)(C)CNc1c(C#N)cnc2c(Cl)cc(N[C@@H](c3ccccc3)c3cn(C4CCN(C(C)(C)C)CC4)nn3)cc12 [Example 543, (S)-6-(((1-(1-(tert-butyl)piperidin-4-yl)-1H-1,2,3-triazol-4-yl)(phenyl)methyl)amino)-8-chloro-4-(neopentylamino)quinoline-3-carbonitrile] | 51 | 7
N#Cc1cnc2c(Cl)cc(N[C@@H](c3ccccc3)c3cn(CC4(N5CCCC5)COC4)nn3)cc2c1Nc1ccc(F)c(Cl)c1 [Example 544] | 1190 | 94
N#Cc1cnc2c(Cl)cc(N[C@@H](c3ccccc3)c3cn(CCCN4CCCC4)nn3)cc2c1Nc1ccc(F)c(Cl)c1 [Example 545, (S)-8-chloro-4-((3-chloro-4-fluorophenyl)amino)-6-((phenyl (1-(3-(pyrrolidin-1-yl)propyl)-1H-1,2,3-triazol-4-yl)methyl)amino)quinoline-3-carbonitrile] | 88 | 3
N#Cc1cnc2c(Cl)cc(N[C@@H](c3ccccc3)c3cn(CCN4CCCC4)nn3)cc2c1Nc1ccc(F)c(Cl)c1 [Example 546, (S)-8-chloro-4-((3-chloro-4-fluorophenyl)amino)-6-((phenyl (1-(2-(pyrrolidin-1-yl)ethyl)-1H-1,2,3-triazol-4-yl)methyl)amino)quinoline-3-carbonitrile] | 200 | 8
CC(C)n1cc([C@@H](Nc2cc(Cl)c3ncc(C#N)c(Nc4ccc(F)c(Cl)c4)c3c2)c2cccc(N3CCCCC3=O)c2)nn1 [Example 547, (S)-8-chloro-4-((3-chloro-4-fluorophenyl)amino)-6-(((1-isopropyl-1H-1,2,3-triazol-4-yl) (3-(2-oxopiperidin-1-yl)phenyl)methyl)amino) quinoline-3-carbonitrile] | 508 | 2
CC(C)(C)N1CCC(n2cc([C@@H](Nc3cc(Cl)c4ncc(C#N)c(Nc5ccc(F)c(Cl)c5)c4c3)c3cccc(N4CCCCC4=O)c3)nn2)CC1 [Example 548, (S)-6-(((1-(1-(tert-butyl)piperidin-4-yl)-1H-1,2,3-triazol-4-yl)(3-(2-oxopiperidin-1-yl)phenyl)methyl)amino)-8-chloro-4-((3-chloro-4-fluorophenyl)amino)quinoline-3-carbonitrile] | 40 | 1
